The values that follow come from patent publication US9730937B2, “RAF kinase modulator compounds and methods of use thereof” (AMBIT BIOSCIENCES CORPORATION, priority 2008, dated 2017).

Structures can show the parent of a compound that is named as a salt.

One assay concerns panel of 290 distinct kinases (321 in the larger panel), excluding mutant variants. To be noted: asterisk: panel of 321 distinct kinases.
Turning to `COCCOc1cc2ncnc(Oc3cccc(NC(=O)Nc4cc(C(C)(C)F)no4)c3)c2cc1OC` [Ex 218, 1-(3-(2-fluoropropan-2-yl)isoxazol-5-yl)-3-(3-(6-methoxy-7-(2-methoxyethoxy)quinazolin-4-yloxy)phenyl)urea], the S35 entry is given as “C* (0.20 < C ≦ 0.40)”.
In the case of `COCCOc1cc2ncnc(Oc3cccc(NC(=O)Nc4cc(C5CCCC5)on4)c3)c2cc1OC` [Ex 219, 1-(5-cyclopentylisoxazol-3-yl)-3-(3-(6-methoxy-7-(2-methoxyethoxy)quinazolin-4-yloxy)phenyl)urea], the S35 result is recorded as “C* (0.20 < C ≦ 0.40)”.
Turning to `COCCOc1cc2ncnc(Oc3cccc(NC(=O)Nc4cc(C(F)(F)F)nn4C)c3)c2cc1OC` [Ex 220, 1-{3-[6-methoxy-7-(2-methoxyethoxy)quinazolin-4-yloxy]phenyl}-3-[1-methyl-3-(trifluoromethyl)-1H-pyrazol-5-yl]urea], the S35 entry is reported as “C* (0.20 < C ≦ 0.40)”.
Turning to `COCCOc1cc2ncnc(Oc3cccc(NC(=O)Nc4cc(C(F)(F)F)nn4-c4ccccc4)c3)c2cc1OC` [Ex 221, 1-{3-[6-methoxy-7-(2-methoxyethoxy)quinazolin-4-yloxy]phenyl}-3-[1-phenyl-3-(trifluoromethyl)-1H-pyrazol-5-yl]urea], the S35 entry is listed as “C* (0.20 < C ≦ 0.40)”.
For `COCCOc1cc2ncnc(Oc3cccc(NC(=O)Nc4ccc(C(F)(F)F)c(F)c4)c3)c2cc1OC` [Ex 222, 1-(3-fluoro-4-(trifluoromethyl)phenyl)-3-(3-(6-methoxy-7-(2-methoxyethoxy)quinazolin-4-yloxy)phenyl)urea], the S35 entry is reported as “C* (0.20 < C ≦ 0.40)”.
Turning to `COCCOc1cc2ncnc(Oc3cccc(NC(=O)Nc4ccc(C(F)(F)F)c(OC)c4)c3)c2cc1OC` [Ex 223, 1-(3-methoxy-4-(trifluoromethyl)phenyl)-3-(3-(6-methoxy-7-(2-methoxyethoxy)quinazolin-4-yloxy)phenyl)urea], the S35 result is “C* (0.20 < C ≦ 0.40)”.
In the case of `CCOC(=O)Cn1nc(C(C)(C)C)cc1NC(=O)Nc1cccc(Oc2ncnc3cc(OCCOC)c(OC)cc23)c1` [Ex 224, ethyl 2-[3-tert-butyl-5-(3-{3-[6-methoxy-7-(2-methoxyethoxy)quinazolin-4-yloxy]phenyl}ureido)-1H-pyrazol-1-yl]acetate hydrochloride], the S35 result is recorded as “A* (A ≦ 0.10)”.
Turning to `COCCOc1cc2ncnc(Oc3cccc(NC(=O)Nc4cc(C(F)(F)F)n(-c5ccccc5)n4)c3)c2cc1OC` [Ex 225, 1-{3-[6-methoxy-7-(2-methoxyethoxy)quinazolin-4-yloxy]phenyl}-3-[1-phenyl-5-(trifluoromethyl)-1H-pyrazol-3-yl]urea], the S35 result is recorded as “C* (0.20 < C ≦ 0.40)”.
For the compound `COCCOc1cc2ncnc(Oc3cccc(NC(=O)Nc4cc(C(F)(F)F)nn4-c4ccc(F)cc4)c3)c2cc1OC` [Ex 226, 1-[1-(4-fluorophenyl)-3-(trifluoromethyl)-1H-pyrazol-5-yl]-3-{3-[6-methoxy-7-(2-methoxyethoxy)quinazolin-4-yloxy]phenyl}urea], the S35 entry is on record as “C* (0.20 < C ≦ 0.40)”.
As for `COCCOc1cc2ncnc(Oc3cccc(NC(=O)Nc4cc(C(F)(F)F)nn4-c4ccc(C)cc4)c3)c2cc1OC` [Ex 227, 1-{3-[6-methoxy-7-(2-methoxyethoxy)quinazolin-4-yloxy]phenyl}-3-[1-p-tolyl-3-(trifluoromethyl)-1H-pyrazol-5-yl]urea], the S35 entry was “C* (0.20 < C ≦ 0.40)”.
`COCCOc1cc2ncnc(Oc3cccc(NC(=O)Nc4cc(C(C)(CF)CF)nn4-c4ccccc4)c3)c2cc1OC` [Ex 228, 1-[3-(1,3-difluoro-2-methylpropan-2-yl)-1-phenyl-1H-pyrazol-5-yl]-3-{3-[6-methoxy-7-(2-methoxyethoxy)quinazolin-4-yloxy]phenyl}urea]: the S35 result is “D* (D > 0.40)”.
For the compound `COCCOc1cc2ncnc(Oc3cccc(NC(=O)Nc4cc(C(F)(F)F)no4)c3)c2cc1OC` [Ex 229, 1-(3-(6-methoxy-7-(2-methoxyethoxy)quinazolin-4-yloxy)phenyl)-3-(3-(trifluoromethyl)isoxazol-5-yl)urea], the S35 entry was “C* (0.20 < C ≦ 0.40)”.
`COCCOc1cc2ncnc(Sc3cccc(NC(=O)Nc4cc(C(C)(CF)CF)on4)c3)c2cc1OC` [Ex 230, 1-[5-(1,3-difluoro-2-methylpropan-2-yl)isoxazol-3-yl]-3-{3-[6-methoxy-7-(2-methoxyethoxy)quinazolin-4-ylthio]phenyl}urea]: the S35 result was “C* (0.20 < C ≦ 0.40)”.
The same measure, in the same setting: the entry for `COCCOc1cc2ncnc(Sc3cccc(NC(=O)Nc4ccc(C(F)(F)F)c(F)c4)c3)c2cc1OC` [Ex 231, 1-(3-fluoro-4-(trifluoromethyl)phenyl)-3-(3-(6-methoxy-7-(2-methoxyethoxy)quinazolin-4-ylthio)phenyl)urea] is “B* (0.10 < B ≦ 0.20)”; for `COCCOc1cc2ncnc(Sc3cccc(NC(=O)Nc4cc(C(C)C)on4)c3)c2cc1OC` [Ex 232, 1-(5-isopropylisoxazol-3-yl)-3-(3-(6-methoxy-7-(2-methoxyethoxy)quinazolin-4-ylthio)phenyl)urea] it is “C* (0.20 < C ≦ 0.40)”; for `COCCOc1cc2ncnc(Sc3cccc(NC(=O)Nc4ccc(C(F)(F)F)c(OC)c4)c3)c2cc1OC` [Ex 233, 1-(3-methoxy-4-(trifluoromethyl)phenyl)-3-(3-(6-methoxy-7-(2-methoxyethoxy)quinazolin-4-ylthio)phenyl)urea] it is “C* (0.20 < C ≦ 0.40)”.
On the same count and under the same terms, the entry for `COCCOc1cc2ncnc(Sc3cccc(NC(=O)Nc4cc(C(C)(C)F)no4)c3)c2cc1OC` [Ex 234, 1-(3-(2-fluoropropan-2-yl)isoxazol-5-yl)-3-(3-(6-methoxy-7-(2-methoxyethoxy)quinazolin-4-ylthio)phenyl)urea] is “C* (0.20 < C ≦ 0.40)”; for `COCCOc1cc2ncnc(Sc3cccc(NC(=O)Nc4cc(C5CCCC5)on4)c3)c2cc1OC` [Ex 235, 1-(5-cyclopentylisoxazol-3-yl)-3-(3-(6-methoxy-7-(2-methoxyethoxy)quinazolin-4-ylthio)phenyl)urea] it is “C* (0.20 < C ≦ 0.40)”.
For `COCCOc1cc2ncnc(Sc3cccc(NC(=O)Nc4cc(C(C)(C)C)nn4-c4ccccc4)c3)c2cc1OC` [Ex 236, 1-(3-tert-butyl-1-phenyl-1H-pyrazol-5-yl)-3-(3-(6-methoxy-7-(2-methoxyethoxy)quinazolin-4-ylthio)phenyl)urea], the S35 result is “D* (D > 0.40)”.
Turning to `CCOC(=O)Cn1nc(C(C)(C)C)cc1NC(=O)Nc1cccc(Sc2ncnc3cc(OCCOC)c(OC)cc23)c1` [Ex 237, ethyl 2-[3-tert-butyl-5-(3-{3-[6-methoxy-7-(2-methoxyethoxy)quinazolin-4-ylthio]phenyl}ureido)-1H-pyrazol-1-yl]acetate], the S35 entry is reported as “C* (0.20 < C ≦ 0.40)”.
Still for that read-out and setting: the entry for `COCCOc1cc2ncnc(Sc3cccc(NC(=O)Nc4cc(C(C)(CF)CF)nn4-c4ccccc4)c3)c2cc1OC` [Ex 238, 1-[3-(1,3-difluoro-2-methylpropan-2-yl)-1-phenyl-1H-pyrazol-5-yl]-3-{3-[6-methoxy-7-(2-methoxyethoxy)quinazolin-4-ylthio]phenyl}urea] is “D* (D > 0.40)”; for `COCCOc1cc2ncnc(Sc3cccc(NC(=O)Nc4cc(C(F)(F)F)nn4C)c3)c2cc1OC` [Ex 239, 1-{3-[6-methoxy-7-(2-methoxyethoxy)quinazolin-4-ylthio]phenyl}-3-[1-methyl-3-(trifluoromethyl)-1H-pyrazol-5-yl]urea] it is “D* (D > 0.40)”; for `COCCOc1cc2ncnc(Sc3cccc(NC(=O)Nc4cc(C(F)(F)F)nn4-c4ccc(F)cc4)c3)c2cc1OC` [Ex 242, 1-[1-(4-fluorophenyl)-3-(trifluoromethyl)-1H-pyrazol-5-yl]-3-{3-[6-methoxy-7-(2-methoxyethoxy)quinazolin-4-ylthio]phenyl}urea] it is “C* (0.20 < C ≦ 0.40)”.
With `COCCOc1cc2ncnc(Sc3cccc(NC(=O)Nc4cc(C(F)(F)F)nn4-c4ccc(C)cc4)c3)c2cc1OC` [Ex 243, 1-{3-[6-methoxy-7-(2-methoxyethoxy)quinazolin-4-ylthio]phenyl}-3-[1-p-tolyl-3-(trifluoromethyl)-1H-pyrazol-5-yl]urea], the S35 result is “C* (0.20 < C ≦ 0.40)”.
For the compound `COCCOc1cc2ncnc(Sc3cccc(NC(=O)Nc4cc(C(F)(F)F)n(-c5ccccc5)n4)c3)c2cc1OC` [Ex 244, 1-{3-[6-methoxy-7-(2-methoxyethoxy)quinazolin-4-ylthio]phenyl}-3-[1-phenyl-5-(trifluoromethyl)-1H-pyrazol-3-yl]urea], the S35 result is “C* (0.20 < C ≦ 0.40)”.
Regarding `COc1cc2ncnc(Sc3cccc(NC(=O)Nc4cc(C(C)(C)F)no4)c3)c2cc1OCCCN1CCS(=O)(=O)CC1` [Ex 245, 1-(3-(2-fluoropropan-2-yl)isoxazol-5-yl)-3-(3-(7-methoxy-6-(4,4-dioxo-3-thiomorpholinopropoxy)quinazolin-4-ylthio)phenyl)urea], the S35 entry was “C* (0.20 < C ≦ 0.40)”.
As to `COc1cc2ncnc(Sc3cccc(NC(=O)Nc4ccc(OC)c(C(F)(F)F)c4)c3)c2cc1OCCCN1CCS(=O)(=O)CC1` [Ex 246, 1-(4-methoxy-3-(trifluoromethyl)phenyl)-3-(3-(7-methoxy-6-(3-(4,4-dioxothiomorpholino)propoxy)quinazolin-4-ylthio)phenyl)urea], the S35 entry is “C* (0.20 < C ≦ 0.40)”.
For the compound `COc1cc2c(Sc3cccc(NC(=O)Nc4ccc(OC)c(C(F)(F)F)c4)c3)ncnc2cc1OCCN1CCOCC1` [Ex 249, 1-(4-methoxy-3-(trifluoromethyl)phenyl)-3-(3-(6-methoxy-7-(2-morpholinoethoxy)quinazolin-4-ylthio)phenyl)urea], the S35 entry is on record as “C* (0.20 < C ≦ 0.40)”.
Same read-out and setting: the entry for `COc1cc2c(Oc3cccc(NC(=O)Nc4ccc(OC)c(C(F)(F)F)c4)c3)ncnc2cc1OCCN1CCOCC1` [Ex 250, 1-(4-methoxy-3-(trifluoromethyl)phenyl)-3-(3-(6-methoxy-7-(2-morpholinoethoxy)quinazolin-4-yloxy)phenyl)urea] is “C* (0.20 < C ≦ 0.40)”.

The same assay, now with this note: no asterisk: panel of 290 distinct kinases.
`COCCOc1cc2ncnc(Sc3cccc(NC(=O)Nc4cc(C(C)(C)C)no4)c3)c2cc1OCCOC` [Ex 247, 1-(3-(6,7-bis(2-methoxyethoxy)quinazolin-4-ylthio)phenyl)-3-(3-tert-butylisoxazol-5-yl)urea]: the S35 result is “C (0.20 < C ≦ 0.40)”.
